In article PMC8957573 (Journal of Natural Products, 2022):

Molecular target: T1, TAK1 (Homo sapiens, UniProt O43318)
T1 sequence (O43318 1-303 limits assumed): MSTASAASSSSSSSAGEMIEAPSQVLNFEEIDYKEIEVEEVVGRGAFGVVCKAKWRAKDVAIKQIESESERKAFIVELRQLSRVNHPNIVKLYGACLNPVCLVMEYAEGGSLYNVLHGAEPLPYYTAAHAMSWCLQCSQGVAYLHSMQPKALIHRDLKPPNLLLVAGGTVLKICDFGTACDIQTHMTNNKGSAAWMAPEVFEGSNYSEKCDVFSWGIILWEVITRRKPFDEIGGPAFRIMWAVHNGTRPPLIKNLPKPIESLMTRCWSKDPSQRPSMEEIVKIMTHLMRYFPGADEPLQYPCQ
Experiment: TAK1 inhibition assay
Type: biochemical
Conditions: cis-enone RALs

Inhibitory activity against TAK1 (in words): inhibit TAK1
SMILES: COc1cc(O)c2c(c1)[C@H]1O[C@@H]1C[C@H](O)[C@H](O)C(=O)/C=C\C[C@H](C)OC2=O [Hypothemycin (1), Hypothemycin]
